Results: US10676466B2, “Crystalline hydrate of the compound (2S,3R)-isopropyl 2-(((2-(1,5-dimethyl-6-oxo-1,6-dihydropyridin-3-yl)-1-((tetrahydro-2H-pyran-4-yl)methyl)-1H-benzo[D]imidazol-5-yl)methyl)amino)-3-hydroxybutanoate edisylate” (GLAXOSMITHKLINE INTELLECTUAL PROPERTY DEVELOPMENT LIMITED, priority 2016, dated 2020)
Structures can show the parent of a compound that is named as a salt.

Tests used:
[1] = system: MCP-1 production; experiment: LPS induced MCP-1 production from human whole blood; format: cell-based; conditions: LPS 200 ng/mL, 18-24 hours
Description: Activation of monocytic cells by agonists of toll-like receptors such as bacterial lipopolysaccharide (LPS) results in production of key inflammatory mediators including MCP-1. Such pathways are widely considered to be central to the pathophysiology of a range of auto-immune and inflammatory disorders. Blood is collected in a tube containing Sodium heparin (Leo Pharmaceuticals) (10 units of heparin/mL of blood). 96-well compound plates containing 1 μL test sample in 100% DMSO were prepared (two replicates on account of donor variability). 130 μL of whole blood was dispensed into each well of the 96-well compound plates and incubated for 30 min at 37° C., 5% CO2. 10 μL of lipopolysaccharide (from Salmonella typhosa; L6386) made up in PBS (200 ng/mL final assay concentration) was added to each well of the compound plates. The plates were then placed in the humidified primary cell incubator for 18-24 hours at 37° C., 5% CO2. 140 μL of PBS was added to all wells of the compound plates containing blood. The plates were then sealed and centrifuged for 10 mins at 2500 rpm. […] 150 μL of 2×MSD Read Buffer T (stock 4×MSD Read Buffer T was diluted 50:50 with de-ionised water) was then added to each well and the plates read on the MSD Sector Imager 6000. Concentration response curves for each compound were generated from the data and an pIC50 value was calculated.

[2] = biological target: T1, recombinant human CES1 (Homo sapiens, UniProt P23141); experiment: Hydrolysis by hCES-1 (HPLC assay); format: in vitro ADME; conditions: 50 μM test compound, 50 nM CES1, 20° C., pH 7.5, n=2
T1 construct: Recombinant human CES1 (Gly18-Glu563, bearing a polyhistidine tag at the C-terminus); purchased Novoprotein, Summit, N.J., USA C450; host or cells: human cells
T1 sequence (P23141 18-563): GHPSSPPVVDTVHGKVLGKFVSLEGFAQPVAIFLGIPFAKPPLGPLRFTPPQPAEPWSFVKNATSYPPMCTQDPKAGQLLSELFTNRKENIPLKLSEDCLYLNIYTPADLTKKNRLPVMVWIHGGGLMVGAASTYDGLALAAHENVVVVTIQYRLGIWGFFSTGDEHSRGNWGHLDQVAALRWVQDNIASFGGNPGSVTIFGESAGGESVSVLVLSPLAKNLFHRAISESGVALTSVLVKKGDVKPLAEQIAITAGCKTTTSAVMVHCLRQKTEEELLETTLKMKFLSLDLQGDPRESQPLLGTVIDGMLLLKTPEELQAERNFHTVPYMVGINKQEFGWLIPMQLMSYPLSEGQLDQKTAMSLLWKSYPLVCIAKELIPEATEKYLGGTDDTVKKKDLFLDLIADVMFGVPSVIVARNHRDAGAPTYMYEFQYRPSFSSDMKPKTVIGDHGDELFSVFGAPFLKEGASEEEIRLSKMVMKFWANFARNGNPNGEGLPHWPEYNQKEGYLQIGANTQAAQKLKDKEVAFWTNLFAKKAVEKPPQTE
Description: Hydrolysis of ESM-containing BET inhibitors by carboxylesterase 1 (CES1) is one aspect of delivering a targeted molecule. Rates of hydrolysis of certain compounds of the invention by recombinant human CES1 were determined using an HPLC assay. Recombinant human CES1 (Gly18-Glu563, bearing a polyhistidine tag at the C-terminus) expressed in human cells and purified to homogeneity was obtained from Novoprotein, Summit, N.J., USA (catalogue number C450). Reactions were run in 384 well plates at 20° C. in a buffer of 50 mM sodium phosphate pH 7.5/100 mM NaCl. Assays used a fixed concentration of test compound (50 μM) and CES1 (50 nM) and a time course of the reaction was obtained by stopping samples at increasing times by addition of formic acid to lower the pH. Stopped samples were subsequently analysed by HPLC to resolve product acid from unhydrolysed ester, using a 50×2 mm C18 […] reversed-phase column (Phenomenex Gemini) at a flow rate of 1 ml/min using a gradient of acetonitrile in water, containing 0.1% formic acid. Chromatogaphy was monitored using absorbance at 300 nm wavelength. The % of product formed was determined using integrated peak areas and used to determine the initial rate of the reaction. […]

[3] = system: Bromodomains BRD2, BRD3, BRD4 and BRDT; experiment: Fluoroligand binding to mutated vs non-mutated bromodomain (TR-FRET); design: species or system Human; conditions: single residue mutations in the acetyl lysine binding pocket
Description: The binding of compounds of the invention to Bromodomains BRD2, BRD3, BRD4 and BRDT was assessed using mutated proteins to detect differential binding to either Binding Domain 1 (BD1) or Binding Domain 2 (BD2) on the bromodomain. These single residue mutations in the acetyl lysine binding pocket greatly lower the affinity of the fluoroligand (Reference Compound X) for the mutated domain (>1000 fold selective for the non-mutated domain). Therefore in the final assay conditions, binding of the fluoroligand to the mutated domain cannot be detected and subsequently the assay is suitable to determine the binding of compounds to the single non-mutated bromodomain.
Recombinant Human Bromodomains [(BRD2 (1-473) (Y113A) and (Y386A), BRD3 (1-435) (Y73A) and (Y348A) BRD4 (1-477) (Y97A) and (Y390A) and BRDT (1-397) (Y66A) and (Y309A)] were expressed in E. coli cells (in pET15b vector for BRD2/3/4 and in pET28a vector for BRDT) with a 6-His tag at the N-terminal. The His-tagged Bromodomain pellet was resuspended in 50 mM HEPES (pH7.5), 300 mM NaCl, 10 mM imidazole & 1 μl/ml protease inhibitor cocktail and extracted from the E. coli cells using sonication and purified using a nickel sepharose high performance column, the proteins were washed and then eluted with a linear gradient of 0-500 mM imidazole with buffer 50 mM HEPES (pH7.5), 150 mM NaCl, 500 mM imidazole, over 20 column volumes. […]

## Cc1cc(-c2nc3cc(CN[C@H](C(=O)OC(C)C)[C@@H](C)O)ccc3n2CC2CCOCC2)cn(C)c1=O [edisylate salt of Example 1, Edisylate Salt of (2S,3R)-Isopropyl 2-(((2-(1,5-dimethyl-6-oxo-1,6-dihydropyridin-3-yl)-1-((tetrahydro-2H-pyran-4-yl)methyl)-1H-benzo[d]imidazol-5-yl)methyl)amino)-3-hydroxybutanoate]
[1]
  mean pIC50, LPS induced MCP-1 production: 7.5

## Cc1cc(-c2nc3cc(CN[C@H](C(=O)OC(C)C)[C@@H](C)O)ccc3n2CC2CCOCC2)cn(C)c1=O (as salt: edisylate) (hydrate or solvate) [Example 1, (2S,3R)-Isopropyl 2-(((2-(1,5-dimethyl-6-oxo-1,6-dihydropyridin-3-yl)-1-((tetrahydro-2H-pyran-4-yl)methyl)-1H-benzo[d]imidazol-5-yl)methyl)amino)-3-hydroxybutanoate]
other
  melting point: ~ 223 °C

## Cc1cc(-c2nc3cc(CN[C@H](C(=O)OC(C)C)[C@@H](C)O)ccc3n2CC2CCOCC2)cn(C)c1=O [Example 1, (2S,3R)-Isopropyl 2-(((2-(1,5-dimethyl-6-oxo-1,6-dihydropyridin-3-yl)-1-((tetrahydro-2H-pyran-4-yl)methyl)-1H-benzo[d]imidazol-5-yl)methyl)amino)-3-hydroxybutanoate]
[2]
  mean rate of hydrolysis (specific activity of CES1): 0.21 μM/min/μM
[1]; Homo sapiens, read-out: mean pIC50, LPS induced MCP-1 production (converted)
  IC50: 25.1 nM

## COc1ccc2c(c1)C(c1ccc(Cl)cc1)=N[C@@H](CC(=O)NCCCCCNC(=O)CCCCCC1(C)/C(=C/C=C/C=C/C3=[N+](CCCCS(=O)(=O)O)c4ccc(S(=O)(=O)O)cc4C3(C)C)N(CCCCS(=O)(=O)[O-])c3ccc(S(=O)(=O)O)cc31)c1nnc(C)n1-2 (some centres unmarked) [Reference Compound X]
[3]
  selectivity for the non-mutated domain over the mutated domain: > 1000 fold
